Laboratory results as given in patent US20230000808A1, “COMPOSITIONS AND METHODS EXCLUDING OR WITH REDUCED GLUTAMINE FOR THE TREATMENT OF HEMOGLOBINOPATHIES AND THALASSEMIAS” (AXCELLA HEALTH INC., priority 2019, published 2023).

Assays:
Assay type in all cases: cell-based, human
[1] = system: sickle cell disease patient blood; test: ROS (DCF fluorescence) in sickle cell disease patient whole blood; conditions: both treated with H2O2 and untreated, in DPBS
Procedure: (§1) Whole blood samples were appropriately diluted in Ca^2+- and Mg^2+-free Dulbecco's phosphate buffered saline (DPBS, Life Technologies) and the concentration of erythrocytes (RBC/mL) was measured on a Cellometer K2 Fluorescent Viability Cell Counter according to the manufacturer's RBC/AOPI protocol (Nexcelom Biosciences).
(§2) Cells were then diluted to 1×10^6 RBC/mL into either prewarmed 37° C. […] 2′-7′-dichlorofluorescin diacetate (DCF, Millipore Sigma), 20 mM in dimethyl sulfoxide (DMSO, Fisher) were added to a working concentration of 100 μM. Cells were incubated with dye for 15 minutes at 37° C., 5% CO2 in a tissue culture incubator, washed once, and resuspended in the 0.9 volumes of the same prewarmed 37° C. buffer with 5 minute spins at 500×g, accel/decal=5 in a swing arm centrifuge (Beckman Coulter). […] Where possible due to solubility constrains, pH-7.4-adjusted stock solutions of amino acids were used. Wells were mixed by pipetting and plates incubated at 37° C., 5% CO2 in a tissue culture incubator for 30 minutes. Optionally, 40 mM H2O2 (Millipore Sigma) freshly prepared in the same buffer was added to bring the concentration to 2 mM, wells mixed by pipetting, and plates were incubated an additional 30, 60, 120, or 240 minutes before fluorescence measurement of ROS signal on a Synergy H4 (BioTek) microplate reader with excitation=488 nm and emission=530 nm, and gain either set to autogain, 75, or 100.

[2] = system: whole blood from healthy controls; test: ROS (DCF fluorescence) in whole blood of healthy control donors, H2O2-induced; conditions: healthy control donors treated with H2O2; dose-responsive
Procedure: as §1, §2

HLMVECs = test: Mitochondrial stress test, oxygen consumption rate in HLMVEC/TNF-α model (Seahorse); conditions: for Maximal respiration (OCR) relative to TNF Control, Mean % Change: HLMVEC/TNF-α model, 24 h, Seahorse
Procedure: Cells were incubated at 37° C., 5% CO2 in a humidified incubator. Cells were passaged at least 1-2 times in the complete growth medium every 2-3 days until ready to plate for cell culture studies. Once ready for experiment, HLMVECs were seeded at a density of 6K cells per well of the 96 well optical microplates (Thermofisher) in the complete growth medium described above and the plated cells were incubated for 24 hours at 37° C. in a humidified incubator with 5% CO2. […] The values are published in the Human Metabolome Database (Wishart D S, et al., Nucleic Acids Res. 2007 January; 35:[…]-6) which is hereby incorporated by reference in its entirety. The medium was also supplemented with growth factors & antibiotics from EGM2-MV kit (Lonza) except the kit-provided FBS which was substituted with dialyzed FBS (Hyclone). […] Using the Agilent Seahorse XF Cell Mito Stress Test Kit (103015-100), parameters of mitochondrial function were studied by directly measuring the oxygen consumption rate (OCR) of HLMVECs on the Seahorse Flux Analyzer (Agilent Technologies) following the manufacturer's recommended protocol and prescribed controls in the kit. The co-treatment cell culture medium after 24 h incubation was removed & aliquoted for adhesion & inflammation biomarker analyses as described above and the HLMVECs in the 96-well plate were further incubated at 37° C. in a non-CO2 incubator for 45 minutes to 1 hour in the pre-warmed Seahorse assay medium supplemented with 10 mM glucose and 1 mM pyruvate but without 2 mM L-glutamine to allow unambiguous evaluation of amino acid combinations in the study. Oxygen consumption was measured at the end of incubation by the Seahorse Flux Analyzer. Four replicates for each treatment were processed for Seahorse studies. Mean percent change in maximal respiration is reported. Statistical analysis was done using one-way ANOVA two sample t-test.

IL-6 = IL-6 in HLMVEC/TNF-α model (ELISA); conditions: for IL-6 expression relative to TNF Control, Mean % Change: HLMVEC/TNF-α model, 24 h, ELISA
Procedure: (§3) Cells were incubated at 37° C., 5% CO2 in a humidified incubator. Cells were passaged at least 1-2 times in the complete growth medium every 2-3 days until ready to plate for cell culture studies. Once ready for experiment, HLMVECs were seeded at a density of 6K cells per well of the 96 well optical microplates (Thermofisher) in the complete growth medium described above and the plated cells were incubated for 24 hours at 37° C. in a humidified incubator with 5% CO2. […] The values are published in the Human Metabolome Database (Wishart D S, et al., Nucleic Acids Res. 2007 January; 35:[…]-6) which is hereby incorporated by reference in its entirety. The medium was also supplemented with growth factors & antibiotics from EGM2-MV kit (Lonza) except the kit-provided FBS which was substituted with dialyzed FBS (Hyclone). […] Human MCP-1 was measured by ELISA (Human […] DuoSet ELISA, R&D Systems) at 1/70 dilution in 1× Reagent Diluent (Reagent Ancillary Kit 2, R&D Systems). Samples were run in triplicates. […] Samples were run in triplicates. Mean percent change in cytokine levels relative to vehicle are reported herein. Statistical analysis was done using two sample t-test.

MCP-1 = MCP-1 in HLMVEC/TNF-α model (ELISA); conditions: for MCP-1 expression relative to TNF Control, Mean % Change: 20×HMDB amino acids, 24 h co-treatment
Procedure: as §3

Compound	ROS measured in whole blood [1]	ROS measured in whole blood [2]	Maximal respiration (OCR) relative to TNF Control, Mean % Change (HLMVECs; TNF Conc 0.5 ng/mL) [%]	Maximal respiration (OCR) relative to TNF Control, Mean % Change (HLMVECs; TNF Conc 25 ng/mL) [%]	oxygen consumption (HLMVECs; either TNF-α concentration)	oxygen consumption (HLMVECs; higher TNF-α concentration of 25 ng/mL)	IL-6 expression relative to TNF Control, Mean % Change (IL-6; TNF Conc 0.5 ng/mL) [%]	IL-6 expression relative to TNF Control, Mean % Change (IL-6; TNF Conc 25 ng/mL) [%]	lowering IL-6 (IL-6; either TNF-α group)	MCP-1 expression relative to TNF Control, Mean % Change (MCP-1; TNF Conc 0.5 ng/mL) [%]	MCP-1 expression relative to TNF Control, Mean % Change (MCP-1; TNF Conc 25 ng/mL) [%]	MCP-1 level reduction relative to the controls (MCP-1; both TNF-α treatment groups) [%]
CC(=O)N[C@@H](CS)C(=O)O [N-Acetyl Cysteine, N-acetylcysteine]	reduced	reduced										
NC(=O)CC[C@H](N)C(=O)O [Glutamine, L-glutamine]			−47.7527	−27.9927	did not support oxygen consumption	appeared to get worse	−1.168	14.3622	largely ineffective	−11.673	−12.1569	~12
